Reference: paper PMC6522510 (Nature Communications, 2019)
pEC50: −log10 of the molar value. Like-named read-outs stand apart in the source and are kept apart here.

Key:
Assay in all cases: cells
Design in all cases: species or system AML cell lines (8); Secondary HTS, 10-point dose-response in triplicate, Cell Titer Glo viability, four-parameter fit EC50
MOLM-13 = conditions: Homo sapiens, read-out: MOLM-13
MV4-11 = conditions: Homo sapiens, read-out: MV4-11
CHRF288-11 = conditions: read-out: CHRF288-11
CMK = conditions: Homo sapiens, read-out: CMK
CMS = conditions: read-out: CMS
M07e = conditions: M-07e, read-out: M07e
ML-2 = conditions: Homo sapiens, read-out: ML-2
U937 = conditions: Homo sapiens, read-out: U937

| Compound | pEC50 (MOLM-13; MOLM-13, 72 h) | pEC50 (MV4-11; MV4-11, 72 h) | pEC50 (CHRF288-11; 72 h) | pEC50 (CMK; CMK, 72 h) | pEC50 (CMS; 72 h) | pEC50 (M07e; 72 h) | pEC50 (ML-2; ML-2, 72 h) | pEC50 (U937; U-937, 72 h) | pEC50 (MOLM-13; 72 h cell viability) | pEC50 (MV4-11; 72 h cell viability) | pEC50 (CHRF288-11; 72 h cell viability) | pEC50 (CMK; 72 h cell viability) | pEC50 (CMS; 72 h cell viability) | pEC50 (M07e; 72 h cell viability) | pEC50 (ML-2; 72 h cell viability) | pEC50 (U937; U-937, 72 h cell viability) |
| --- | --- | --- | --- | --- | --- | --- | --- | --- | --- | --- | --- | --- | --- | --- | --- | --- |
| CCCCCCCCCCCCCCCc1cccc(O)c1C(=O)O [SJ000785900, ANACARDIC ACID] | < 5.00 | < 5.00 | < 5.00 | < 5.00 | < 5.00 | < 5.00 | < 5.00 | < 5.00 | – | – | – | – | – | – | – | – |
| COc1cc2c(NC3CCN(C)CC3)nc(N3CCCN(C)CC3)nc2cc1OCCOCCN(C)C [SJ000785901, UNC0321] | < 5.00 | < 5.00 | < 5.00 | < 5.00 | < 5.00 | < 5.00 | < 5.00 | < 5.00 | – | – | – | – | – | – | – | – |
| Cc1cc(Nc2ccc(NC(=O)c3ccc(Nc4ccnc5ccccc45)cc3)cc2)nc(N)n1 [SJ000785906, SGI-1027] | 5.85 | 5.92 | 5.55 | < 5.00 | 5.00 | 5.80 | 5.59 | 6.12 | – | – | – | – | – | – | – | – |
| CC(C)(O)[C@@H]1CC[C@](C)([C@H]2[C@@H](O)C[C@@]3(C)[C@@H]4C[C@H](O[C@@H]5O[C@H](CO)[C@@H](O)[C@H](O)[C@H]5O)[C@H]5C(C)(C)[C@@H](O[C@@H]6OC[C@@H](O)[C@H](O)[C@H]6O)CC[C@@]56C[C@@]46CC[C@]23C)O1 [SJ000785909, ASTRAGALOSIDE IV] | 5.37 | < 5.00 | 6.09 | < 5.00 | < 5.00 | < 5.00 | 6.06 | < 5.00 | – | – | – | – | – | – | – | – |
| C[C@@H]1NC(=O)[C@H]2CCCN2C(=O)[C@H](CCCCCC(=O)[C@@H]2CO2)NC(=O)[C@@H](C)NC1=O [SJ000785910, HC TOXIN] | – | – | – | – | – | – | – | – | 6.82 | < 5.00 | 7.30 | < 5.00 | 7.54 | 7.68 | 6.96 | 7.49 |
| O=C(NC(NC(=S)Nc1ccc(F)c([N+](=O)[O-])c1)C(Cl)(Cl)Cl)C(c1ccccc1)c1ccccc1 (stereo not shown) [SJ000786007, CGK 733] | < 5.00 | < 5.00 | < 5.00 | < 5.00 | < 5.00 | < 5.00 | < 5.00 | < 5.00 | – | – | – | – | – | – | – | – |
| Cc1cc2nc(NCCCO)n(CC(=O)c3cc(C(C)(C)C)c(O)c(C(C)(C)C)c3)c2cc1C [SJ000786025, CID-2858522] | < 5.00 | < 5.00 | < 5.00 | < 5.00 | < 5.00 | < 5.00 | < 5.00 | < 5.00 | – | – | – | – | – | – | – | – |
| N[C@H](CCC(=O)N[C@@H](Cc1c[nH]c2ccccc12)C(=O)O)C(=O)O [SJ000795988, GOLOTIMOD] | < 5.00 | < 5.00 | < 5.00 | < 5.00 | < 5.00 | < 5.00 | < 5.00 | < 5.00 | – | – | – | – | – | – | – | – |
| Cc1ccc(C(=O)COC(=O)c2cccc(NC(=O)c3ccc([N+](=O)[O-])cc3[N+](=O)[O-])c2)cc1 [SJ000796012, FM19G11] | < 5.00 | < 5.00 | < 5.00 | < 5.00 | < 5.00 | < 5.00 | < 5.00 | < 5.00 | – | – | – | – | – | – | – | – |
| CC(C)Oc1ccc(-c2cnc3c(-c4ccnc5ccccc45)cnn3c2)cc1 [SJ000796016, DMH-1] | 8.20 | < 5.00 | < 5.00 | < 5.00 | < 5.00 | < 5.00 | < 5.00 | < 5.00 | – | – | – | – | – | – | – | – |
| Cc1nn(C)c(C)c1C(=O)N1CCN(Cc2nc3ccccc3n2CC(C)(C)C)CC1 [SJ000796025, FTASE INHIBITOR III] | < 5.00 | < 5.00 | < 5.00 | 5.51 | < 5.00 | < 5.00 | < 5.00 | < 5.00 | – | – | – | – | – | – | – | – |
